Columns and labels:
[1] = target: T1, Phosphatidylinositol 4,5-bisphosphate 3-kinase catalytic subunit delta isoform (Homo sapiens, UniProt O00329); assay: Inhibition of PI3K delta (unknown origin) using phosphatidyl inositol as substrate measured after 60 mins in presence of ATP by Kinase-Glo Plus reagent-based luminescence assay
T1 sequence (O00329 whole entry): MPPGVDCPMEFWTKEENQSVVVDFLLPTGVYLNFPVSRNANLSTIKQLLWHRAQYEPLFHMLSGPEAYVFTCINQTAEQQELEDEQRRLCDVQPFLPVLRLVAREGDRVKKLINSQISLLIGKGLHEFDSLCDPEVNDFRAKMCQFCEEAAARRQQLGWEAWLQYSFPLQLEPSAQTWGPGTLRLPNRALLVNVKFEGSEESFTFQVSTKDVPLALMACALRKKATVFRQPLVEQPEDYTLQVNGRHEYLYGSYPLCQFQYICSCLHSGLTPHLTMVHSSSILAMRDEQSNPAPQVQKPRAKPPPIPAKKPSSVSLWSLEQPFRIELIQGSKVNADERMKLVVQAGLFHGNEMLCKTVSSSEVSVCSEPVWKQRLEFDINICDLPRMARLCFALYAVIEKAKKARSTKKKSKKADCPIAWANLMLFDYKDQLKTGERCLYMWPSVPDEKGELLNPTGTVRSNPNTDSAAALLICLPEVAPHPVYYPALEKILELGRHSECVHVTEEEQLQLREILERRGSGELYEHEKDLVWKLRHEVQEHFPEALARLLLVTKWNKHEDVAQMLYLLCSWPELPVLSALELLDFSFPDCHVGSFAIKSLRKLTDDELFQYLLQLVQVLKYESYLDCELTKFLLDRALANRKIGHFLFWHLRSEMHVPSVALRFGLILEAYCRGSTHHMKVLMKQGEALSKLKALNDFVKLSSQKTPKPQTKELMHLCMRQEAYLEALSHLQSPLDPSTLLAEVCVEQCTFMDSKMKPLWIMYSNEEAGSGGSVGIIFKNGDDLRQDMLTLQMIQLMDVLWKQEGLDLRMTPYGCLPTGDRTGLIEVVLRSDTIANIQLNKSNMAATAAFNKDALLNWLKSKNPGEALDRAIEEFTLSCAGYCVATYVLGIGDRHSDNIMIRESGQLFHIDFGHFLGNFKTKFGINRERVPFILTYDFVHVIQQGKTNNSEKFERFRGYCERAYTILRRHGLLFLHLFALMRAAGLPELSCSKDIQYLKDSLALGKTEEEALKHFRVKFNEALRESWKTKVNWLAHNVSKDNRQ

[2] = system: SU-DHL-6; assay: Antiproliferative activity against human SUDHL6 cells by MTT assay; type: functional, cell-based
[3] = system: Ramos; assay: Antiproliferative activity against human Ramos cells by MTT assay; type: functional, cell-based
[4] = system: Raji; assay: Antiproliferative activity against human Raji cells by MTT assay; type: functional, cell-based
[5] = system: HCT-116; assay: cells; conditions: Homo sapiens
Description: Antiproliferative activity against human HCT116 cells by MTT assay

[6] = system: MCF7; assay: cells; conditions: Homo sapiens
Description: Antiproliferative activity against human MCF7 cells by MTT assay

[7] = target: Phosphatidylinositol 4,5-bisphosphate 3-kinase catalytic subunit alpha isoform (Homo sapiens, UniProt P42336); assay: Inhibition of PI3K alpha (unknown origin) using phosphatidyl inositol as substrate measured after 60 mins in presence of ATP by Kinase-Glo Plus reagent-based luminescence assay
[8] = target: Phosphatidylinositol 4,5-bisphosphate 3-kinase catalytic subunit beta isoform (Homo sapiens, UniProt P42338); assay: Inhibition of PI3K beta (unknown origin) using phosphatidyl inositol as substrate measured after 60 mins in presence of ATP by Kinase-Glo Plus reagent-based luminescence assay
[9] = target: Phosphatidylinositol 4,5-bisphosphate 3-kinase catalytic subunit gamma isoform (Homo sapiens, UniProt P48736); assay: Inhibition of PI3K gamma (unknown origin) using phosphatidyl inositol as substrate measured after 60 mins in presence of ATP by Kinase-Glo Plus reagent-based luminescence assay
[10] = target: T2, Phosphatidylinositol 4,5-bisphosphate 3-kinase catalytic subunit delta isoform (Homo sapiens) (UniProt O00329); assay: Inhibition of PI3K delta in human SUDHL6 cells assessed as reduction in AKT phosphorylation at S473 measured after 8 hrs by Western blot analysis; type: cell-based
T2 sequence (whole entry): T1 sequence (O00329 whole entry)

[11] = target: T1, Phosphatidylinositol 4,5-bisphosphate 3-kinase catalytic subunit delta isoform; assay: Inhibition of PI3K delta (unknown origin)

Phosphatidylinositol 4,5-bisphosphate 3-kinase catalytic subunit beta isoform, sequence (P42338 whole entry, canonical isoform): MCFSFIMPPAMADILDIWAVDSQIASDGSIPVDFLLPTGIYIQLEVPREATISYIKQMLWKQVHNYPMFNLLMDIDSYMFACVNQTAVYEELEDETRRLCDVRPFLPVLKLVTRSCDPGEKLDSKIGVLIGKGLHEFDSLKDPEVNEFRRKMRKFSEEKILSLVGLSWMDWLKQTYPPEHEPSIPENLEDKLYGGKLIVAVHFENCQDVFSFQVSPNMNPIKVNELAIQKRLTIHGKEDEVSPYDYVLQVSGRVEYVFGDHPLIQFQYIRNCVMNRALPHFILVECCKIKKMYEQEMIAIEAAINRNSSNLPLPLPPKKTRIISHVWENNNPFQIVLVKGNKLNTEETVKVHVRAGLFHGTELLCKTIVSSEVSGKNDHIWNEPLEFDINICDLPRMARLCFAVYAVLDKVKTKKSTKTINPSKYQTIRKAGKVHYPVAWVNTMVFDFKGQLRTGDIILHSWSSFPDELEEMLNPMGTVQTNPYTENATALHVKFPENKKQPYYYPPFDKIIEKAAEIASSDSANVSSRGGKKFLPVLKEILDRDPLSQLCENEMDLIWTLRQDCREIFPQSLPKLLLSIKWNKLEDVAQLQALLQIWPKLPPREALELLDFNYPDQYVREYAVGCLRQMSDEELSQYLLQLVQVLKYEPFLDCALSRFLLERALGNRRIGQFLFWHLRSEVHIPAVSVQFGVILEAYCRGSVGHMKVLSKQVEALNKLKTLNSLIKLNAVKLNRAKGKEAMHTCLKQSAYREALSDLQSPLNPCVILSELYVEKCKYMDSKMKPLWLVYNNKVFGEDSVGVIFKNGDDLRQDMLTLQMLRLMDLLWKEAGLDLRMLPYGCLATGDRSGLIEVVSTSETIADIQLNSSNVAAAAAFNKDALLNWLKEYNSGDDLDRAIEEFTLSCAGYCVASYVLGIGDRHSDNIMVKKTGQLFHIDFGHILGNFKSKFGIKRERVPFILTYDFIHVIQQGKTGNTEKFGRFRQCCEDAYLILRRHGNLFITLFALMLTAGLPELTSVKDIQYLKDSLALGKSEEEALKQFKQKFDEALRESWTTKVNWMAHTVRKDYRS
Phosphatidylinositol 4,5-bisphosphate 3-kinase catalytic subunit alpha isoform, sequence (P42336 whole entry, canonical isoform): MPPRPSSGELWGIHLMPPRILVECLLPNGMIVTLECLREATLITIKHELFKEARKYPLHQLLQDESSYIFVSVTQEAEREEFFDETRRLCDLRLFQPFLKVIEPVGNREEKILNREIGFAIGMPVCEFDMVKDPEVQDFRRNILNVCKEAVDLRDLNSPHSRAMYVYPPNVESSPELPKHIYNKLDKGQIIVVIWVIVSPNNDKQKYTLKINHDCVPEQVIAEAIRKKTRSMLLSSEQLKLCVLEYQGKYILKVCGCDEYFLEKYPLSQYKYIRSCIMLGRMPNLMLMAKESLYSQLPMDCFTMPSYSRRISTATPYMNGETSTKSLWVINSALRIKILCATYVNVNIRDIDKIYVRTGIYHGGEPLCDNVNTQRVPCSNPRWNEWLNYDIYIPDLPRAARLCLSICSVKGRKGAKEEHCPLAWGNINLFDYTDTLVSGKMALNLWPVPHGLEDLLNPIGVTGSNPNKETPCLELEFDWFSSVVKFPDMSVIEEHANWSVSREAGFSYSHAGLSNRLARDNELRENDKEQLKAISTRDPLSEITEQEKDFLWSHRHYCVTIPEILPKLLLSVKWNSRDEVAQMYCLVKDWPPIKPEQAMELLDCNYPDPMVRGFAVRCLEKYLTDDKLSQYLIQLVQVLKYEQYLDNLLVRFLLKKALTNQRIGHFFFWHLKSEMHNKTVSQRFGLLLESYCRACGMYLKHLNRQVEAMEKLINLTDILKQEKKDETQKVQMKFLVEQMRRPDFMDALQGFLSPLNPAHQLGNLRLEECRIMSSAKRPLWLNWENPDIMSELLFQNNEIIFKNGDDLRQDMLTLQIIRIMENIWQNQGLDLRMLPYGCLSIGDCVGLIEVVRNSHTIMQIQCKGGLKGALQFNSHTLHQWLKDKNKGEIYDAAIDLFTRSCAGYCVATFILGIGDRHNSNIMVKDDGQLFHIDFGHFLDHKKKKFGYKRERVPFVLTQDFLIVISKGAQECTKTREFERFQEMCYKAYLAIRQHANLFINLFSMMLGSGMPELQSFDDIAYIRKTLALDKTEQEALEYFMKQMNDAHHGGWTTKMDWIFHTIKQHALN
Phosphatidylinositol 4,5-bisphosphate 3-kinase catalytic subunit gamma isoform, sequence (P48736 whole entry, canonical isoform): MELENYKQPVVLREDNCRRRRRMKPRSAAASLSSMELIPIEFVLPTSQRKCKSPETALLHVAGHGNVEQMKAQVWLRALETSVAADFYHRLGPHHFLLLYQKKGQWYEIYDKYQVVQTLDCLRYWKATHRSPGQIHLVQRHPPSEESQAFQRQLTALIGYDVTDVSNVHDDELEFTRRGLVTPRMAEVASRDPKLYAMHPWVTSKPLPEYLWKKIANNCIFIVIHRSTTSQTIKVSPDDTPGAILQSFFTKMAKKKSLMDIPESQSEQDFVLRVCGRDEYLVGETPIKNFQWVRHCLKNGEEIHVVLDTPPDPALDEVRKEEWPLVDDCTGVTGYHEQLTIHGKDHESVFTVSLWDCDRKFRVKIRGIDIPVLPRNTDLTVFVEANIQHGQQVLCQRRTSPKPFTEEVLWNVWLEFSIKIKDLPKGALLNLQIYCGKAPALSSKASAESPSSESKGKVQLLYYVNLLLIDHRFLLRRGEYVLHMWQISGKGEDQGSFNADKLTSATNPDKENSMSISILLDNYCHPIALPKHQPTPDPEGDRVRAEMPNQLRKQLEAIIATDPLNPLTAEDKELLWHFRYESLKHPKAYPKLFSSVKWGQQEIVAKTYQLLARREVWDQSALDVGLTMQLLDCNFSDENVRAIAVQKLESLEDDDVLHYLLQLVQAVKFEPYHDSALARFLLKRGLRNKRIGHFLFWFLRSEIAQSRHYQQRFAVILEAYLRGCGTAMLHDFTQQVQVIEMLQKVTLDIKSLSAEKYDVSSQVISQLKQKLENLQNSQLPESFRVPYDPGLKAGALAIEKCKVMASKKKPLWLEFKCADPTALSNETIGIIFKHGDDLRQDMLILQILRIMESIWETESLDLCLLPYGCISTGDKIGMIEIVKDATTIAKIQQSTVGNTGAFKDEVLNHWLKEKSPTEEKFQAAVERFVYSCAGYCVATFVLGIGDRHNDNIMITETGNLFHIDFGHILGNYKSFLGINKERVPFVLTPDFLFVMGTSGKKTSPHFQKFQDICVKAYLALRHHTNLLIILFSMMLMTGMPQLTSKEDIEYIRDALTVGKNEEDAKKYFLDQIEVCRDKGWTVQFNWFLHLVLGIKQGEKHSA

SMILES | IC50 [1] [nM] | IC50 [2] [nM] | IC50 [3] [nM] | IC50 [4] [nM] | IC50 [5] [nM] | IC50 [6] [nM] | other results
COc1ncc(-c2ccc3ncnc(N[C@H]4CCCN(C(=O)CCl)C4)c3c2)cc1C#N | 8.9 | 380 | – | – | – | – | –
CC[C@H](Nc1ncnc2[nH]cnc12)c1nc2cccc(F)c2c(=O)n1-c1ccccc1 [IDELALISIB] | – | 33 | > 10000 | > 10000 | > 10000 | > 10000 | –
COc1ncc(-c2ccc3ncnc(N[C@H]4CCCN(C(=O)C5CCNCC5)C4)c3c2)cc1C#N | 2.5 | 2440 | – | – | – | – | –
COc1ncc(-c2ccc3ncnc(N[C@H]4CCCN(C(=O)C(F)(F)F)C4)c3c2)cc1C#N | 3.2 | 210 | – | – | – | – | –
COc1ncc(-c2ccc3ncnc(N[C@H]4CCCN(C(=O)C(F)(F)F)C4)c3c2)cc1[N+](=O)[O-] | 27 | 127000 | – | – | – | – | –
COc1ncc(-c2ccc3ncnc(N[C@H]4CCCN(C(=O)c5cccnc5)C4)c3c2)cc1C#N | 0.7 | 120 | > 10000 | > 10000 | > 10000 | > 10000 | IC50 [7]: 120 nM; IC50 [8]: 9.1 nM; IC50 [9]: 2 nM; inhibition [10]: Dose-dependent effect
COc1ncc(-c2ccc3ncnc(O[C@H]4CCN(C(=O)C5CCOCC5)C4)c3c2)cc1C#N | – | – | – | – | – | – | IC50 [11]: 4.9 nM
COc1ncc(-c2ccc3ncnc(N[C@H]4CCCN(C(=O)C5CCOCC5)C4)c3c2)cc1C#N | 7.7 | 150 | – | – | – | – | –
CCOC(=O)CN1CCC[C@H](Nc2ncnc3ccc(-c4cnc(OC)c(C(F)(F)F)c4)cc23)C1 | 6.8 | 230 | – | – | – | – | –
COc1ncc(-c2ccc3ncnc(N[C@H]4CCCN(C(=O)CN(C)C)C4)c3c2)cc1C#N | 1.3 | 160 | > 10000 | > 10000 | > 10000 | > 10000 | IC50 [7]: 21.8 nM; IC50 [8]: 150 nM; IC50 [9]: 250 nM

More lines, main results first:

IC50 [1] [nM] | IC50 [2] [nM] | IC50 [3] [nM] | IC50 [4] [nM] | IC50 [5] [nM] | IC50 [6] [nM] | SMILES | other results
9.4 | 420 | – | – | – | – | COc1ncc(-c2ccc3ncnc(N[C@H]4CCCN(C(=O)C5CCN(C)CC5)C4)c3c2)cc1C#N | –
3.7 | 440 | > 10000 | > 10000 | > 10000 | > 10000 | COc1ncc(-c2ccc3ncnc(N[C@H]4CCCN(C(=O)[C@H](C)N)C4)c3c2)cc1C#N | IC50 [7]: 18.2 nM; IC50 [8]: 147 nM; IC50 [9]: 211 nM
14.3 | 15 | – | – | – | – | COc1ncc(-c2ccc3ncnc(N[C@H]4CCCN(C(=O)CCBr)C4)c3c2)cc1C#N | –
– | – | 400 | 520 | 300 | 200 | Cn1c(=O)n(-c2ccc(C(C)(C)C#N)cc2)c2c3cc(-c4cnc5ccccc5c4)ccc3ncc21 [DACTOLISIB] | –
4.7 | 2050 | – | – | – | – | COc1ncc(-c2ccc3ncnc(N[C@H]4CCCN(CCO)C4)c3c2)cc1C#N | –
3.2 | 500 | – | – | – | – | CCOC(=O)CN1CCC[C@H](Nc2ncnc3ccc(-c4cnc(OC)c(C#N)c4)cc23)C1 | –

Reference: ChEMBL document CHEMBL4396940, “Synthesis and biological evaluation of 4-(piperid-3-yl)amino substituted 6-pyridylquinazolines as potent PI3Kδ inhibitors” (Bioorg Med Chem, 2019)
